Reference: patent US7759331B2, “Pyridine-containing macroheterococylic compounds as kinase inhibitors” (Janssen Pharmaceutica NV, priority 2006, dated 2010)

Assays:
Assay in all cases: Protein kinase selectivity panel
Format in all cases: biochemical
Details in all cases: 1.0 μM compound, 10 μM ATP
[1] = molecular target: c-RAF(h) (Homo sapiens, UniProt P04049)
How it was run: (§1)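 Kinase, its appropriate substrate, and 10 μM ATP were combined with 1.0 μM compound. Phosphorylation was then allowed to proceed within the time-linear range and measured.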

[2] = molecular target: MAPK1(h) (Homo sapiens, UniProt P27361)
Sequence of MAPK1(h) (P27361 whole entry): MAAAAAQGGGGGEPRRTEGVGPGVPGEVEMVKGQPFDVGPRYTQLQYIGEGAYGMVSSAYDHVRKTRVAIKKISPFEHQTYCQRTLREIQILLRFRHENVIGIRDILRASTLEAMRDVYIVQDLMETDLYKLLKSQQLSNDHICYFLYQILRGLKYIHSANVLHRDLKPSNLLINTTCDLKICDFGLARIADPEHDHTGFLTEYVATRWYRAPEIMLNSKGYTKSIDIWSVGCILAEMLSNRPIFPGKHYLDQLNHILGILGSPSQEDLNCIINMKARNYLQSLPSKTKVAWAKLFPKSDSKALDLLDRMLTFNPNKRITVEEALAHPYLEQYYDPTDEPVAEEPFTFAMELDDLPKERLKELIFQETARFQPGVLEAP
How it was run: as §1

[3] = molecular target: T1, PRAK(h) (Homo sapiens, UniProt Q8IW41)
T1 sequence (Q8IW41 1-473): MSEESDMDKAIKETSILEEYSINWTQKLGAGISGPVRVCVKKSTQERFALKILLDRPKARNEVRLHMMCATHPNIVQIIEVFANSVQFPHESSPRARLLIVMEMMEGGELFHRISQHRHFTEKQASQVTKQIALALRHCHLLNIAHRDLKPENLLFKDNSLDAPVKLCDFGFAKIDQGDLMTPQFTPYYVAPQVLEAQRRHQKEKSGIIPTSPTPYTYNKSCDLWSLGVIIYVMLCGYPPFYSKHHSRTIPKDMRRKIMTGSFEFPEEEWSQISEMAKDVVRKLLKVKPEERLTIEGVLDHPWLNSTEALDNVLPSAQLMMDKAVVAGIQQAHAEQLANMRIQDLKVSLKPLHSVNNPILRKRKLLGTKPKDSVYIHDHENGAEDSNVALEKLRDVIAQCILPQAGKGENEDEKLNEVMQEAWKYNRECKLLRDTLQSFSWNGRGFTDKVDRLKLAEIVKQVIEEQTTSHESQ
How it was run: as §1

[4] = molecular target: T2, EphB2(h) (Homo sapiens, UniProt P29323)
T2 sequence (P29323 19-1055): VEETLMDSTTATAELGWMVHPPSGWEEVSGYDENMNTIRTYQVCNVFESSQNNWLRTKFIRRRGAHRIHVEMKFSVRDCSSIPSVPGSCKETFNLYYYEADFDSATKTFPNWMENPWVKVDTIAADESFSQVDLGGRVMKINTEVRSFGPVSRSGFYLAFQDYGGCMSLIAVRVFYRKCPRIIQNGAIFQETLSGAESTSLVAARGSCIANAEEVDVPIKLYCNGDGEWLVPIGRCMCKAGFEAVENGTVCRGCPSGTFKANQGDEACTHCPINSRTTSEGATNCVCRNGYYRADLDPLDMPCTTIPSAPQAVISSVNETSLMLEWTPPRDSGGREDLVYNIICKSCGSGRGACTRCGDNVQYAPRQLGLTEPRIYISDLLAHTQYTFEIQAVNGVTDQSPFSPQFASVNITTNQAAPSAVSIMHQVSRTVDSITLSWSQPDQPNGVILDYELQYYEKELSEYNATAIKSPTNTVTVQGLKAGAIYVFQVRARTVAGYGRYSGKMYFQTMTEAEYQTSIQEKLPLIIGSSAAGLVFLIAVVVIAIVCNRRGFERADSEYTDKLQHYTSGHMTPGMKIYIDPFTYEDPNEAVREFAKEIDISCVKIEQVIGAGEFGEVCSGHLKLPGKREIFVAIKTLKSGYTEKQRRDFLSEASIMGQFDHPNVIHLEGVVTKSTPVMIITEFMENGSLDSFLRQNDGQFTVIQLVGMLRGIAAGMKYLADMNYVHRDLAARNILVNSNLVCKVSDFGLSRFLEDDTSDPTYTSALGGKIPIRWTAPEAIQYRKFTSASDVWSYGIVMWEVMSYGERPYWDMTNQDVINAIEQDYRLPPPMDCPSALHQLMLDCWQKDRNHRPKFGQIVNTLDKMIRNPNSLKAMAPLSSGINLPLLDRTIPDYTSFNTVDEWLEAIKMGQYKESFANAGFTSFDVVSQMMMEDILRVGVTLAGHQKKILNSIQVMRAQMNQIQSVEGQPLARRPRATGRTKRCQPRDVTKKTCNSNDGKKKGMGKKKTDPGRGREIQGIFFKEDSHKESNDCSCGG
How it was run: as §1

[5] = molecular target: BTK(h) (Homo sapiens, UniProt Q06187)
Sequence of BTK(h) (Q06187 whole entry): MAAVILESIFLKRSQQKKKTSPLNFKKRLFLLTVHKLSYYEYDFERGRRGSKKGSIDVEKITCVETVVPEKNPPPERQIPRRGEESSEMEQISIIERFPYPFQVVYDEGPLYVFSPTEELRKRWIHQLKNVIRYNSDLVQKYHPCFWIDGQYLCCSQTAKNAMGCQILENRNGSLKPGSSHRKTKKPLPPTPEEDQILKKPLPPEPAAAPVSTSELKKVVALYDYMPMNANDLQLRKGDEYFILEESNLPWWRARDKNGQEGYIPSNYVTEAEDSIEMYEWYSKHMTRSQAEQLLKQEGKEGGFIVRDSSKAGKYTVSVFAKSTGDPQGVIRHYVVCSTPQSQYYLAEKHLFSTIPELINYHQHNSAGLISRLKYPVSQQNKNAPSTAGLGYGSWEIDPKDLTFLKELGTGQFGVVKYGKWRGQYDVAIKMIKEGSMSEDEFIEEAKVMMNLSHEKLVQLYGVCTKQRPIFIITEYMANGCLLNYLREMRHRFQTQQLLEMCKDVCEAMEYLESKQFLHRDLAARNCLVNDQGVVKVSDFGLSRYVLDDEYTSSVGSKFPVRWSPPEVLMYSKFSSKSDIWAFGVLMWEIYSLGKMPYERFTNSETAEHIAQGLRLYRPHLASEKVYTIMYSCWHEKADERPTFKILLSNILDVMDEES
How it was run: as §1

[6] = molecular target: T3, SAPK3(h) (Homo sapiens, UniProt P53778)
T3 sequence (P53778 1-367): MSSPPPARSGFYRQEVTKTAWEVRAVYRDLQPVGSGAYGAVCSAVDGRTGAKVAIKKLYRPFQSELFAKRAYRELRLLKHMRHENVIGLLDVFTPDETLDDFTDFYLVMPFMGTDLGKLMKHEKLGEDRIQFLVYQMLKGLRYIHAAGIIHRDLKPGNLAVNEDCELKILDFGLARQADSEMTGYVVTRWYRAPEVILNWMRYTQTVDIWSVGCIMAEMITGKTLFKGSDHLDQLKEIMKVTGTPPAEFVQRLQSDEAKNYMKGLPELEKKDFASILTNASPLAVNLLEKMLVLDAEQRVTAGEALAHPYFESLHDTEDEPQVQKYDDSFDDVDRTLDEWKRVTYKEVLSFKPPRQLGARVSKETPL
How it was run: as §1

[7] = molecular target: PKCγ(h) (Homo sapiens, UniProt P05129)
How it was run: as §1

[8] = molecular target: Ros(h) (Homo sapiens, UniProt P08922)
How it was run: as §1

[9] = molecular target: PKBα(h) (Homo sapiens, UniProt P31749)
Sequence of PKBα(h) (P31749 whole entry): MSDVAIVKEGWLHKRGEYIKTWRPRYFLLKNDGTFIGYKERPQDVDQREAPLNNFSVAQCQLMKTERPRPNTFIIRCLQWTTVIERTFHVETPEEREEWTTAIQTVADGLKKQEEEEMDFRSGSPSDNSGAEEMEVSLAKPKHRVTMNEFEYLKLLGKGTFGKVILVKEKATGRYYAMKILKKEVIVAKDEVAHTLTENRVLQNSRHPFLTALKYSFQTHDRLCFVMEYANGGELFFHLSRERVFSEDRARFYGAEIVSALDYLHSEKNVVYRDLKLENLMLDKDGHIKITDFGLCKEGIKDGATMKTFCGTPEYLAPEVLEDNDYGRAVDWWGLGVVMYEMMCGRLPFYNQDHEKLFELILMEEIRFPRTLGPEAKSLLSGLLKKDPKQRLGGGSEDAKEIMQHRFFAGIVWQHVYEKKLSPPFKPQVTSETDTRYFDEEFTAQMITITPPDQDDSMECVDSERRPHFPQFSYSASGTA
How it was run: as §1

[10] = molecular target: Arg(m) (Mus musculus, UniProt Q4JIM5)
Sequence of Arg(m) (Q4JIM5 whole entry): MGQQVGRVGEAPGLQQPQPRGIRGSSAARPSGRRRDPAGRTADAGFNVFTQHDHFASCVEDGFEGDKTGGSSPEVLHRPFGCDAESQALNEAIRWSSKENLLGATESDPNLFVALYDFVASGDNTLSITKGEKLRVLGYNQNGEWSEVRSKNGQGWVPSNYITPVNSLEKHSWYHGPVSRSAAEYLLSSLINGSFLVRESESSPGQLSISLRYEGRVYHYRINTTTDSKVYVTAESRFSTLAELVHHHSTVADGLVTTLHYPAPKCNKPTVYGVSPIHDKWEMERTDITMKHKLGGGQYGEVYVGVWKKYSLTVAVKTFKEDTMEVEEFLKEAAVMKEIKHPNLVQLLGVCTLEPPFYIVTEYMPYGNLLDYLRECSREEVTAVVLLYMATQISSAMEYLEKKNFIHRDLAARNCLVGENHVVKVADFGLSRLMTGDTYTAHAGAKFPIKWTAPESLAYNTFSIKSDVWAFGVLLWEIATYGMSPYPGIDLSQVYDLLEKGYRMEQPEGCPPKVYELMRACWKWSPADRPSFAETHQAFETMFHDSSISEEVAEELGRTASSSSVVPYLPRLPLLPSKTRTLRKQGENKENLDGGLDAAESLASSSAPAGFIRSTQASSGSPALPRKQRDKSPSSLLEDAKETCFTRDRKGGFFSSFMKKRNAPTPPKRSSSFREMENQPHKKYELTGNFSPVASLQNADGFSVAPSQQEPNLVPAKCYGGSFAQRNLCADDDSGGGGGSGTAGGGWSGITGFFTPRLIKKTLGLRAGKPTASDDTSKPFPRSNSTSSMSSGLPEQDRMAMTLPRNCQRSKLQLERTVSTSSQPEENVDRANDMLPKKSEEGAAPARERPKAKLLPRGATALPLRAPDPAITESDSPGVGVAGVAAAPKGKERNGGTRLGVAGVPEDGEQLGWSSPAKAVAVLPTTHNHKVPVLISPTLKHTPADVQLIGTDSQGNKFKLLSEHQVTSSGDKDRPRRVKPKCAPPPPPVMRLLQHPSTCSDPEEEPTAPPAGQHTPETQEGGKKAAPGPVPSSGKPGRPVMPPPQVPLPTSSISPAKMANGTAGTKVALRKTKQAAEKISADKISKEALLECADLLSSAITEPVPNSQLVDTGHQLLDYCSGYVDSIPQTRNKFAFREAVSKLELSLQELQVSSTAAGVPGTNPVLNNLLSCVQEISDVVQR
How it was run: as §1

[11] = molecular target: MSK1(h) (Homo sapiens, UniProt O75582)
Sequence of MSK1(h) (O75582 whole entry): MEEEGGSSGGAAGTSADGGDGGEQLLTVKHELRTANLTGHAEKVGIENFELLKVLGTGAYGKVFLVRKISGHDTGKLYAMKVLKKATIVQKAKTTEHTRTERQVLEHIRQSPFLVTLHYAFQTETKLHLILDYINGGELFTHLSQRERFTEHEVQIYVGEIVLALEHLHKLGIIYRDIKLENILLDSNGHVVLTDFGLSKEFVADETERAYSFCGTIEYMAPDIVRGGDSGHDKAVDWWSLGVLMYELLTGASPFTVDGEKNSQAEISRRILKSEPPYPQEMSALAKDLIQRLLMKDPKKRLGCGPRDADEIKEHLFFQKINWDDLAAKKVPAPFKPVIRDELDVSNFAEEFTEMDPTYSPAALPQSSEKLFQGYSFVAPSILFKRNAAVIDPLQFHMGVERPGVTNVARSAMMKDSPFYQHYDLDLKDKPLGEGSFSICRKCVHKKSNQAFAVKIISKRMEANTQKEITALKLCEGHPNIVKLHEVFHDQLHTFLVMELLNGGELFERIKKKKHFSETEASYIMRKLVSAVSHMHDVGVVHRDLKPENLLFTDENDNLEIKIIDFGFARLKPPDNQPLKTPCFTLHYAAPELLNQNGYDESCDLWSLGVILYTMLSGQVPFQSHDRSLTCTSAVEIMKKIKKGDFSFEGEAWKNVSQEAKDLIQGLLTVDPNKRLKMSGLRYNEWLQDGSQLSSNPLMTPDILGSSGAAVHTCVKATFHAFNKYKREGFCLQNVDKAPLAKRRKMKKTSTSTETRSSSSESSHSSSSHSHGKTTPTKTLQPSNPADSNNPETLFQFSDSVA
How it was run: as §1

[12] = molecular target: CDK2/cyclinE(h) (Homo sapiens, UniProt P24941)
How it was run: as §1

Sequence of c-RAF(h) (P04049 whole entry): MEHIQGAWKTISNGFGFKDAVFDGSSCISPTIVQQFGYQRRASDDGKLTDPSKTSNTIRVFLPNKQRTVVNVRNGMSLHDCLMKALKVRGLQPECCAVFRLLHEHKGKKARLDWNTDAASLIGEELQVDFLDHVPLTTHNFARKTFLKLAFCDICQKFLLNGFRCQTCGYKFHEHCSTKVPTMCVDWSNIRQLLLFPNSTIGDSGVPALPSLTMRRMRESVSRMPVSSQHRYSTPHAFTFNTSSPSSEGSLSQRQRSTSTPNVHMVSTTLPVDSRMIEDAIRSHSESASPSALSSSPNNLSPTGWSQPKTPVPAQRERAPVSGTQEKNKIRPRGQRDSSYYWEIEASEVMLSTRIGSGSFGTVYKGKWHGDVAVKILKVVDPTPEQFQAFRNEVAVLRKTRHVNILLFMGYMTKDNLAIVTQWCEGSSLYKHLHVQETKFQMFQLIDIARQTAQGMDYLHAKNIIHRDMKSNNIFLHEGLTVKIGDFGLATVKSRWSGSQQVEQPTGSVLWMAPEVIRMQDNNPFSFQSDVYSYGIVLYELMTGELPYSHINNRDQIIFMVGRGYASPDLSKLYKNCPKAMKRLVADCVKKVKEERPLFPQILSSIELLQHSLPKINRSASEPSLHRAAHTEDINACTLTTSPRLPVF

SMILES | Activity at Protein Kinase Assays (% of control), c-RAF(h) [1] | Activity at Protein Kinase Assays (% of control), MAPK1(h) [2] | Activity at Protein Kinase Assays (% of control), PRAK(h) [3] | Activity at Protein Kinase Assays (% of control), EphB2(h) [4] | Activity at Protein Kinase Assays (% of control), BTK(h) [5] | Activity at Protein Kinase Assays (% of control), SAPK3(h) [6] | Activity at Protein Kinase Assays (% of control), PKCγ(h) [7] | Activity at Protein Kinase Assays (% of control), Ros(h) [8] | Activity at Protein Kinase Assays (% of control), PKBα(h) [9] | Activity at Protein Kinase Assays (% of control), Arg(m) [10] | Activity at Protein Kinase Assays (% of control), MSK1(h) [11] | Activity at Protein Kinase Assays (% of control), CDK2/cyclinE(h) [12]
CN(C)c1nc2ccc1CCCCn1cc(c3ccccc31)C1=C(C(=O)NC1=O)c1cn(c3ccccc13)CCC2 [Cpd 1, 31-(dimethylamino)-5,15,25,32-tetraazaheptacyclo[28.2.2.1^5,12.1^18,25.0^6,11.0^13,17.0^19,24]hexatriaconta-1(32),6,8,10,12(36),13(17),18(35),19,21,23,30,33-dodecaene-14,16-dione] | 103 % of control | 97 % of control | 88 % of control | 125 % of control | 105 % of control | 78 % of control | 91 % of control | 79 % of control | 94 % of control | 113 % of control | 36 % of control | 54 % of control
CN(C)c1cc2cc(n1)CCCn1cc(c3ccccc31)C1=C(C(=O)NC1=O)c1cn(c3ccccc13)CCC2 [Cpd 2, 20-(dimethylamino)-4,14,19,26-tetraazaheptacyclo[24.6.1.1^7,14.1^18,22.0^2,6.0^8,13.0^27,32]pentatriaconta-1(33),2(6),7(35),8,10,12,18(34),19,21,27,29,31-dodecaene-3,5-dione] | 87 % of control | 86 % of control | 96 % of control | 114 % of control | 106 % of control | 115 % of control | 107 % of control | 108 % of control | 114 % of control | 129 % of control | 58 % of control | 84 % of control
O=C1NC(=O)C2=C1c1cn(c3ccccc13)CCCc1cc(nc(N3CCCC3)c1)CCCn1cc2c2ccccc21 [Cpd 6, 20-pyrrolidin-1-yl-4,14,19,26-tetraazaheptacyclo[24.6.1.1^7,14.1^18,22.0^2,6.0^8,13.0^27,32]pentatriaconta-1(33),2(6),7(35),8,10,12,18(34),19,21,27,29,31-dodecaene-3,5-dione] | 92 % of control | 99 % of control | 101 % of control | 110 % of control | 106 % of control | 103 % of control | 99 % of control | 117 % of control | 112 % of control | 121 % of control | 38 % of control | 88 % of control
O=C1NC(=O)C2=C1c1cn(c3ccccc13)CCCc1ccc(c(N3CCCC3)n1)CCCn1cc2c2ccccc21 [Cpd 7, 31-pyrrolidin-1-yl-5,15,25,30-tetraazaheptacyclo[27.2.2.1^5,12.1^18,25.0^6,11.0^13,17.0^19,24]pentatriaconta-1(31),6,8,10,12(35),13(17),18(34),19,21,23,29,32-dodecaene-14,16-dione] | 85 % of control | 110 % of control | 102 % of control | 114 % of control | 104 % of control | 114 % of control | 102 % of control | 105 % of control | 106 % of control | 130 % of control | 104 % of control | 88 % of control
